Test [1] addresses E. coli ATP synthase (purified F1 or membrane bound F1Fo) (Escherichia coli, UniProt P0ABA6+P0ABB0+P0ABB4). It counts as biochemical. The following applies: for Residual ATPase Activity (%): left over ATPase activity at maximal inhibition.
For test [2], the system named is E. coli strain pBWU13.4/DK8. Briefly: Growth yield in limiting glucose medium in presence of bioflavonoid compounds. The format is cell-based, Escherichia coli. The following applies: OD595 after ~20 hours growth at 37 °C; control 100, null 45.
The subject of the next test is E. coli ATP synthase. The following applies: cited from earlier work.
In test [3] the test system is rat brain and liver mitochondrial F1Fo ATP synthase. The following applies: cited from earlier work.
Test [4] concerns E. coli enzyme mutants αR283A/Q, αE284A/Q, βS263A/Q, γT273A/Q, γQ274A/K, γT277A/Q, γE278A/Q. Briefly: Inhibition of polyphenol binding pocket mutants of E. coli enzyme. To be noted: unpublished results of the authors. It counts as biochemical, Escherichia coli.
Test [5] has as its system androgen-responsive human prostate carcinoma cells (LNCaP). The following applies: concentrations of up to 50μmol/L/day; cited from earlier work.
For test [6], the system named is normal human prostate cells. To be noted: at similar concentrations (up to 50μmol/L/day); cited from earlier work.
The target of test [7] is E. coli ATP synthase (purified F1 or membrane bound enzyme) (Escherichia coli, UniProt P0ABA6+P0ABB0+P0ABB4). Briefly: Reversal of ATPase inhibition by dilution or centrifuge columns. It counts as biochemical. To be noted: dilution to non-inhibitory concentration or twice through centrifuge columns.
Test [8] has as its system cultured human lymphoblastoid and other mammalian cells. To be noted: not in ρ° cells; cited from earlier work.
The mark [9] stands for this setting: purified F1 or membrane bound F1Fo.
Setting [10] is: mitochondrial F1Fo ATP synthase.

SMILES strings stand for the structures. Entries after “also recorded” stand apart in the source; their conditions may differ.

Data on 20 compounds can be found in article PMC2862773 (International journal of biological macromolecules, 2010).

`O=c1c(O)c(-c2ccccc2)oc2cc(O)cc(O)c12` [Galangin]: the “Extent of inhibition of ATPase activity, in words” value (from here on “Extent of inhibition … in words”) in [1] (setting [9]) is recorded as “insignificant; also recorded: no inhibition”. Besides, in test [2], the “Growth yield in limiting glucose (%)” value amounted to 93%.
As to `O=c1cc(-c2ccccc2)oc2cc(O)cc(O)c12` [Chrysin], in test [1] (60 min preincubation), the “Residual ATPase Activity (%)” value amounted to 40%. Also, the “Growth yield in limiting glucose (%)” value in test [2] is recorded as 73%.
For `O=c1c(O)c(-c2ccc(O)c(O)c2)oc2cc(O)cc(O)c12` [Quercetin], the IC50 (as a rule, the midpoint of a concentration-inhibition curve) in the test with E. coli ATP synthase (E. coli ATP synthase) is roughly 33 µM; in test [3] (setting [10]), 55 to 65 µM. In addition, the Reversibility of inhibition result in the test on E. coli ATP synthase (binds non-covalently at the polyphenol binding site) is listed as “reversible”. In addition, the “Inhibition of E. coli ATP synthase” value with E. coli ATP synthase is ~ 80%. Besides, in [4], the “Inhibition of mutant enzymes” value is recorded as “loss of inhibition”.
On to `O=c1cc(-c2ccc(O)c(O)c2)oc2cc(O)cc(O)c12` [Luteolin], for which, in test [1] (setting [9]), the “Extent of inhibition … in words” value is recorded as “insignificant”. Besides, the “Growth yield in limiting glucose (%)” value in test [2] was 87%.
Turning to `Oc1ccc(/C=C/c2cc(O)cc(O)c2)cc1` [resveratrol], in test [5], the Effect on apoptosis entry was “stimulation of apoptosis”. Besides, in test [3] (setting [10]), the Time to inhibition was 1 to 2 min. Besides, the “Inhibition of mutant enzymes” value in test [4] is “loss of inhibition”. The “Effect on rate of cell death” value in test [6] was “no effect”.
Take `CC(N)C12CC3CC(CC(C3)C1)C2` (stereo not drawn) [Rimantadine, reference compound]: the “Residual ATPase Activity (%)” value in test [1] (60 min preincubation) is on record as 0%. In addition, the “Extent of inhibition … in words” value in test [1] (setting [9]) is “complete inhibition”. In addition, the “Growth yield in limiting glucose (%)” value in test [2] amounted to 52%.
`O=c1cc(-c2ccc(O)cc2)oc2cc(O)cc(O)c12` [Apigenin]: the “Residual ATPase Activity (%)” value in [1] (60 min preincubation) is 60%. Also, the IC50 in test [3] (setting [10]) was roughly 100 µM. Also, in test [7], the Reversibility of inhibition entry is reported as “reversible”.
With `NC12CC3CC(CC(C3)C1)C2` [Amantadin, reference compound], the “Residual ATPase Activity (%)” value in test [1] (60 min preincubation) is given as 0%. The “Extent of inhibition … in words” value in test [1] (setting [9]) is recorded as “complete inhibition”. Moreover, the “Inhibition of ATPase activity (maximal extent)” value in test [1] (purified F1 or membrane bound F1Fo, 60 min preincubation) is reported as ~ 100%. In addition, in test [2], the “Growth yield in limiting glucose (%)” value is reported as 51%.
In the case of `O=c1c(O)c(-c2ccc(O)cc2O)oc2cc(O)cc(O)c12` [Morin hydrate], the “Residual ATPase Activity (%)” value in [1] (60 min preincubation) is 0%. Also, the “Extent of inhibition … in words” value in test [1] (setting [9]) is recorded as “complete inhibition”. The “Growth yield in limiting glucose (%)” value in test [2] turned out to be 46%.
For `COc1cc(C2Oc3cc([C@H]4Oc5cc(O)cc(O)c5C(=O)[C@@H]4O)ccc3OC2CO)ccc1O` (stereo partly drawn) [Silibinin], in that order: 0%, “complete inhibition” and 47%.
Taken in the same sequence, the figures for `Oc1cc(O)c2c(c1)O[C@H](c1ccc(O)c(O)c1)[C@H](O)C2` [(−)-Epicatechin] were 0%, “complete inhibition” and 53%.
As to `O=c1c(-c2ccc(O)cc2)coc2cc(O)cc(O)c12` [Genistein], in [2], the “Growth yield in limiting glucose (%)” value came out at 87%.
On to `COc1ccc(-c2cc(=O)c3c(O)cc(O[C@@H]4O[C@H](CO[C@@H]5O[C@@H](C)[C@H](O)[C@@H](O)[C@H]5O)[C@@H](O)[C@H](O)[C@H]4O)cc3o2)cc1O` [Diosmin], for which the “Extent of inhibition … in words” value in [1] (setting [9]) was “partial inhibition”.
`CC[C@H]1/C=C/C=C/C[C@@H](C)[C@H](O)[C@@](C)(O)C(=O)[C@@H](C)[C@H](O)[C@@H](C)C(=O)[C@@H](C)[C@H](O)[C@@H](C)/C=C/C(=O)O[C@@H]2[C@H](C)[C@H](CC1)O[C@]1(CC[C@H](C)[C@H](C[C@@H](C)O)O1)[C@H]2C` [Oligomycin]: the “Time to apoptotic suicide response” value in [8] was 12 to 18 h.
In the case of `COc1ccc([C@@H]2CC(=O)c3c(O)cc(O[C@@H]4O[C@H](CO[C@@H]5O[C@@H](C)[C@H](O)[C@@H](O)[C@H]5O)[C@@H](O)[C@H](O)[C@H]4O)cc3O2)cc1O` [Hesperidin], the “Residual ATPase Activity (%)” value in test [1] (60 min preincubation) stood at 40%. Besides, in test [1] (setting [9]), the “Extent of inhibition … in words” value is recorded as “partial inhibition”. Besides, the “Growth yield in limiting glucose (%)” value in test [2] was determined as 76%.
Consider `O=c1c(-c2ccc(O)cc2)coc2cc(O[C@@H]3O[C@H](CO)[C@@H](O)[C@H](O)[C@H]3O)cc(O)c12` [genistin], for which the “Inhibition of ATPase activity” value in test [3] (up to 140 μM) is “did not inhibit”.
In the case of `C[C@@H]1O[C@@H](OC[C@H]2O[C@@H](Oc3c(-c4ccc(O)c(O)c4)oc4cc(O)cc(O)c4c3=O)[C@H](O)[C@@H](O)[C@@H]2O)[C@H](O)[C@H](O)[C@H]1O` [Rutin hydrate], in test [2], the “Growth yield in limiting glucose (%)” value came out at 87%.
For the compound `O=c1c(-c2ccc(O)cc2)coc2cc(O)ccc12` [Daidzein], the “Extent of inhibition … in words” value in test [1] (setting [9]) is reported as “insignificant”. In addition, the “Growth yield in limiting glucose (%)” value in [2] is reported as 96%.
On to `O=c1cc(-c2ccccc2)oc2cc(O)c(O)c(O)c12` [Baicalein], for which, in [1] (60 min preincubation), the “Residual ATPase Activity (%)” value amounted to 0%. Further, the “Extent of inhibition … in words” value in test [1] (setting [9]) was “complete inhibition”. Besides, the “Growth yield in limiting glucose (%)” value in test [2] was 48%.
`Oc1cc(O)cc(/C=C/c2ccc(O)c(O)c2)c1` [piceatannol]: the “Inhibition of mutant enzymes” value in test [4] was “loss of inhibition”.
